# According to patent US20250099474A1 (priority 2022, published 2025):
# Where two headings read alike, the source gives them in different places.
# Assays:
# [1] = system: SARS-CoV-2; assay type: in vivo, human; conditions: Phase 3 Part, mild/moderate patients, ITT, onset to randomization less than 72 hours; for Time to resolution of 12 COVID-19 symptoms: Maximum value / Time to resolution of 14 COVID-19 symptoms: Maximum value / Time to resolution of five COVID-19 symptoms: Maximum value: +: includes censored data
# Protocol: The primary endpoint of Phase 3 Part was the time to resolution of five COVID-19 symptoms in mild/moderate SARS-CoV-2-infected patients, and the efficacy was verified by evaluation of the five COVID-19 symptoms in four grades (0: none, 1: mild, 2: moderate, 3: severe) by the patients themselves.
# The 750/250 mg group received 750 mg on Day 1 as a loading dose and 250 mg on Days 2 to 5 as a maintenance dose.
# The primary efficacy endpoint of Phase 3 Part for mild/moderate SARS-CoV-2-infected patients was the time to resolution of the five COVID-19 symptoms.
# Existing symptoms that existed before the onset of COVID-19 and were determined by the subject to be worsening at the baseline (pre-administration test) time point had to be improved […] from the severity at the baseline time point. • Severity at baseline was “severe”→“moderate”, “mild”, or “none” • Severity at baseline was “moderate”→“mild”, or “none” • Severity at baseline was “mild”→[…] “none” • Existing symptoms that existed before the onset of COVID-19 and were determined by the subject not to be worsening at the baseline (pre-administration test) time point had to be maintained or improved from the severity at the baseline time point. • Severity at baseline was “severe”->“severe”, “moderate”, “mild”, or “none” • Severity at baseline was “moderate”->“moderate”, “mild”, or “none” • Severity at baseline was “mild”→“mild”, or “none” • Regarding symptoms other than the above, that is, symptoms that were not present before the onset of COVID-19 and developed at or after the baseline (pre-administration test) time point, such symptoms had to be eliminated. • Severity at baseline was “severe”, “moderate”, or “mild”→“none”
# As the key secondary analysis of the primary endpoint, the same analysis as the primary analysis was performed for the population of the mild/moderate SARS-CoV-2-infected patients in the ITT population.
# [2] = Phase 2/3 study: frequency of adverse events; assay type: in vivo, human; conditions: for Adverse events leading to discontinuation of administration, causally related to the investigational new drug: recovering or recovered after discontinuation
# [3] = system: SARS-CoV-2; conditions: mouse, in vivo
# [4] = monkey, in vivo
# [5] = 375/125 mg group, 336 cases analyzed
# [6] = 750/250 mg group, 330 cases analyzed
structure (smiles),measurement,setting,value
"Cn1cnc(Cn2c(=O)[nH]/c(=N\c3cc4cn(C)nc4cc3Cl)n(Cc3cc(F)c(F)cc3F)c2=O)n1 [(6E)-6-[(6-chloro-2-methyl-2H-indazol-5-yl)imino]-3-[(1-methyl-1H-1,2,4-triazol-3-yl)methyl]-1-[(2,4,5-trifluorophenyl)methyl]-1,3,5-triazinane-2,4-dione]",Time to resolution of 14 COVID-19 symptoms: Kaplan-Meier median value,[1]; 375/125 mg group,187.8 h
same,Time to resolution of 14 COVID-19 symptoms: Minimum value,[1]; 375/125 mg group,2.4 h
same,Time to resolution of 14 COVID-19 symptoms: Number of events (value in parentheses),[1]; 375/125 mg group,(71.7)
same,Time to resolution of 14 COVID-19 symptoms: Restricted mean survival time during 21 days (RMST),[1]; 375/125 mg group,257.9 h
same,Time to resolution of five COVID-19 symptoms: 25% point,[1]; 375/125 mg group,99.5 h
same,Time to resolution of five COVID-19 symptoms: 75% point,[1]; 375/125 mg group,424.8 h
same,Time to resolution of five COVID-19 symptoms: Difference of RMST (vs placebo),[1]; 375/125 mg group,-19.4 h
same,Time to resolution of five COVID-19 symptoms: Difference of median value (vs placebo),[1]; 375/125 mg group,-24.3 h
same,Time to resolution of five COVID-19 symptoms: Kaplan-Meier median value,[1]; 375/125 mg group,167.9 h
same,Time to resolution of five COVID-19 symptoms: Minimum value,[1]; 375/125 mg group,2.4 h
same,Time to resolution of five COVID-19 symptoms: Number of events (value in parentheses),[1]; 375/125 mg group,(75.6)
same,Time to resolution of five COVID-19 symptoms: Restricted mean survival time during 21 days (RMST),[1]; 375/125 mg group,241.6 h
same,Time to resolution of 12 COVID-19 symptoms: Number of events,[1]; [5],244
same,Time to resolution of 14 COVID-19 symptoms: Number of events,[1]; [5],241
same,Time to resolution of five COVID-19 symptoms: Number of events,[1]; [5],254
same,Time to resolution of 12 COVID-19 symptoms: Maximum value,[1]; 375/125 mg group,489.1 h
same,Time to resolution of 14 COVID-19 symptoms: Maximum value,[1]; 375/125 mg group,489.1 h
same,Time to resolution of five COVID-19 symptoms: Maximum value,[1]; 375/125 mg group,489.1 h
same,Time to resolution of 12 COVID-19 symptoms: 25% point,[1]; 750/250 mg group,114.2 h
same,Time to resolution of 12 COVID-19 symptoms: 75% point,[1]; 750/250 mg group,422.7 h
same,Time to resolution of 12 COVID-19 symptoms: Difference of RMST (vs placebo),[1]; 750/250 mg group,-20.8 h
same,Time to resolution of 12 COVID-19 symptoms: Difference of median value (vs placebo),[1]; 750/250 mg group,-28.3 h
same,Time to resolution of 12 COVID-19 symptoms: Kaplan-Meier median value,[1]; 750/250 mg group,184.9 h
same,Time to resolution of 12 COVID-19 symptoms: Minimum value,[1]; 750/250 mg group,9.4 h
same,Time to resolution of 12 COVID-19 symptoms: Number of events (value in parentheses),[1]; 750/250 mg group,(78.2)
same,Time to resolution of 12 COVID-19 symptoms: Restricted mean survival time during 21 days (RMST),[1]; 750/250 mg group,249.9 h
same,Time to resolution of 14 COVID-19 symptoms: 25% point,[1]; 750/250 mg group,117.1 h
same,Time to resolution of 14 COVID-19 symptoms: 75% point,[1]; 750/250 mg group,431.6 h
same,Time to resolution of 14 COVID-19 symptoms: Difference of RMST (vs placebo),[1]; 750/250 mg group,-22.0 h
same,Time to resolution of 14 COVID-19 symptoms: Difference of median value (vs placebo),[1]; 750/250 mg group,-41.5 h
same,Time to resolution of 14 COVID-19 symptoms: Kaplan-Meier median value,[1]; 750/250 mg group,190.3 h
same,Time to resolution of 14 COVID-19 symptoms: Minimum value,[1]; 750/250 mg group,9.4 h
same,Time to resolution of 14 COVID-19 symptoms: Number of events (value in parentheses),[1]; 750/250 mg group,(77.3)
same,Time to resolution of 14 COVID-19 symptoms: Restricted mean survival time during 21 days (RMST),[1]; 750/250 mg group,256.0 h
same,Time to resolution of five COVID-19 symptoms: 25% point,[1]; 750/250 mg group,96.7 h
same,Time to resolution of five COVID-19 symptoms: 75% point,[1]; 750/250 mg group,360.9 h
same,Time to resolution of five COVID-19 symptoms: Difference of RMST (vs placebo),[1]; 750/250 mg group,-26.1 h
same,Time to resolution of five COVID-19 symptoms: Difference of median value (vs placebo),[1]; 750/250 mg group,-21.0 h
same,Time to resolution of five COVID-19 symptoms: Kaplan-Meier median value,[1]; 750/250 mg group,171.2 h
same,Time to resolution of five COVID-19 symptoms: Minimum value,[1]; 750/250 mg group,9.4 h
same,Time to resolution of five COVID-19 symptoms: Number of events (value in parentheses),[1]; 750/250 mg group,(79.6)
same,Time to resolution of five COVID-19 symptoms: Restricted mean survival time during 21 days (RMST),[1]; 750/250 mg group,234.8 h
same,Time to resolution of five COVID-19 symptoms: Number of events,"[1]; 750/250 mg group, 329 cases analyzed",262
same,Time to resolution of 12 COVID-19 symptoms: Number of events,[1]; [6],258
same,Time to resolution of 14 COVID-19 symptoms: Number of events,[1]; [6],255
same,Time to resolution of 12 COVID-19 symptoms: Maximum value,[1]; 750/250 mg group,490.1 h
same,Time to resolution of 14 COVID-19 symptoms: Maximum value,[1]; 750/250 mg group,490.1 h
same,Time to resolution of five COVID-19 symptoms: Maximum value,[1]; 750/250 mg group,490.1 h
same,Adverse events leading to deaths,[2]; Phase 2a Part,no adverse events leading to deaths
same,"Deaths, serious adverse events, adverse events leading to discontinuation of administration",[2]; Phase 2a Part,"no deaths, serious adverse events, or adverse events leading to discontinuation of administration"
same,Adverse events leading to the discontinuation of administration,"[2]; Phase 2a Part, 375/125 mg group, both causally related to the investigational new drug",Two adverse events leading to the discontinuation of administration were observed
same,serious adverse events,"[2]; Phase 2a Part, active drug group",not in the active drug group
same,Adverse events leading to deaths,[2]; Phase 3 Part,no adverse events leading to deaths
same,Serious adverse event,"[2]; Phase 3 Part, 375/125 mg group, no causal relationship with the investigational new drug",observed in one case
same,"Adverse events leading to discontinuation of administration, causally related to the investigational new drug","[2]; Phase 3 Part, 375/125 mg group",eczema and emesis
same,"Adverse events leading to discontinuation of administration, causally related to the investigational new drug","[2]; Phase 3 Part, 750/250 mg group",rash (2 cases)
same,maximum plasma concentration (Cmax) in humans that reduces the virus titer by 2 log,[3],14.1 μg/mL
same,maximum plasma concentration (Cmax) in humans that reduces the virus titer by 3 log,[3],23.0 μg/mL
same,NOAEL (plasma concentration),[4],75.2 to 77.6 µg/mL
